Where a SMILES comes first, the peptide text is derived from it. The star is where a group is joined. Cbz = O=C(OCc1ccccc1)*; CH2F = FC*
Key:
Assay type in all cases: cell-based
[1] = test system: isolated live cancer cells; assay: augmentation culture with proteasome inhibitors (Example 4); conditions: lactacystin 0.1-1 μM, epoxomicin 1-2 μM, and/or HMB 10-150 μg/mL; at least the last 24 hours prior to harvest
Experimental: Isolated live cancer cells are placed in tissue culture. The tissue culture medium is supplemented with lactacystin at a concentration of 0.1-1 μM, epoxomicin at a concentration of 1-2 μM, and/or HMB at a concentration of 10-150 μg/mL. The inhibitor can be present throughout the augmentation phase of culture, or a portion thereof, but at least the last 24 hours prior to harvest. Doses in the lower end of the stated ranges are appropriate for longer term exposure. Doses at the high end of the state ranges can be used in the last 24 hours of cultivation. The content of protein (including normal, mutated and misfolded proteins) in the cancer cells is increased.

[2] = test system: established ovarian tumor line; assay: cell survival of ovarian tumor line culture exposed to proteasome inhibitor and/or caspase inhibitor
Experimental: To benefit from the increased antigen content that can be obtained through use of a proteasome inhibitor, but also avoid triggering apoptosis, the proteasome inhibitor can be used in conjunction with a caspase inhibitor. First, to find the concentration of the proteasome inhibitor that caused minimal cell death, a range of bortezomib dilutions were tested in vitro on an established ovarian tumor line after reaching 70-90% confluence. The cultures were maintained in a standard DMEM:F12 media with 5% FBS. Bortezomib was reconstituted in DMSO and added directly to the cultures in concentrations from 0.1 to 100 nM
A concentration of 20 μM was chosen for further experiments.
Then the sequential application of the caspase inhibitor and proteasome inhibitor was tested. The tumor cells were cultured in the presence of 20 μM caspase inhibitor Z-VAD-fmk for 24 hours and then the medium was exchanged for medium containing bortezomib and the cells culture for another 48 hours. Bortezomib was used at the lowest concentration of that induced cell death, 5 nM.
The simultaneous application of Bortezomib and Z-VAD-fmk was also tested using 1 nM Botezomib with either 1 or 20 μM Z-VAD-fmk.

[3] = test system: isolated live cancer cells; assay: culture with caspase inhibitor (Example 6); conditions: Z-VAD-fmk 5-50 μM throughout proliferation and augmentation phases
Experimental: Isolated live cancer cells are placed in tissue culture. The tissue culture medium is supplemented with the broad spectrum caspase inhibitor Z-VAD-fmk at a concentration of 5-50 μM. The caspase inhibitor is added at the initiation of cell culture and maintained throughout the proliferation and augmentation phases of culture.

[4] = test system: CA125; assay: antibody labeling and epifluorescence imaging of protein content, CA125; conditions: bortezomib 0.1 nM to 1.0 nM, without caspase inhibitor (FIGS. 6 and 7)
Description: (§1) To evaluate protein content, we queried two targets that are commonly found in cancers: CA125, which is typically specific for ovarian cancer, and MUC1, which is common in many types of cancer (for example, colon, breast, ovarian, lung and pancreatic). The proteins were labeled using antibodies conjugated with Alexa Fluor 488 (green; anti-MUC1) or 594 (red; anti-CA125). The cells were imaged with an epifluorescence microscope (Nikon) with pre-set parameters for exposure and magnification.

[5] = test system: MUC1; assay: antibody labeling and epifluorescence imaging of protein content, MUC1; conditions: bortezomib 0.1 nM to 1.0 nM, without caspase inhibitor (FIGS. 6 and 7)
Description: as §1

[6] = test system: isolated live cancer cells; assay: augmentation culture with DNA methyltransferase inhibitor (Example 3); conditions: decitabine 100-500 nM throughout, or 1 μM-10 μM at beginning of augmentation phase
Experimental: Isolated live cancer cells are placed in tissue culture. The tissue culture medium is supplemented with decitabine from the beginning of the augmentation phase for not less than one hour and up to the entire augmentation phase depending on concentration. A concentration of 100-500 nM can be used throughout the augmentation phase of cultivation. Alternatively a higher concentration of 1 μM-10 μM can be used at beginning of the augmentation phase and then removed or reduced to the lower concentration.

[7] = test system: isolated live cancer cells; assay: augmentation culture with histone deacetylase inhibitors (Example 2); conditions: 0.01 mM to 10 mM each in the medium during augmentation phase
Experimental: Isolated live cancer cells are placed in tissue culture. During an augmentation phase, the tissue culture medium is supplemented with valproic acid or phenylbutyrate, or both, each at a concentration of 0.01 mM to 10 mM each. The level of histone acetylation, mRNA transcription, and protein expression, including expression of TAA, all increase.

[8] = test system: isolated live cancer cells; assay: depletion of Wnt signaling ligands (Example 7); conditions: beta-methyl-cyclodextrin 0.5-20 mM, one half to 3 hours prior to the end of the augmentation phase
Experimental: Isolated live cancer cells are placed in tissue culture. One half to 3 hours prior to the end of the augmentation phase and preparation for DC loading, the tissue culture medium is supplemented with beta-methyl-cyclodextrin at a concentration of 0.5-20 mM. Cholesterol and Wnt ligands are depleted from the plasma membrane of the cancer cells.

CC(C)(O)CC(=O)O [HMB, beta-hydroxy beta-methylbutyrate]
content of protein (including normal, mutated and misfolded proteins) in the cancer cells [1]: increased

COC(=O)C[C@H](NC(=O)[C@H](C)NC(=O)[C@@H](NC(=O)OCc1ccccc1)C(C)C)C(=O)CF [Z-VAD-fmk] (Cbz-Val-Ala-Asp(OMe)-CH2F)
effect on cell survival ([2]; Z-VAD-fmk 10-100 μM, without an apoptotic challenge): did not have an effect on cell survival | accumulation of proteins, including TAA [3]: accumulate to higher levels than in untreated cultures | viability of the cultured cancer cells [3]: maintaining a high degree of viability

CC(C)C[C@H](NC(=O)[C@H](Cc1ccccc1)NC(=O)c1cnccn1)B(O)O [bortezomib]
effect on survival ([2]; below 1 nM bortezomib): did not have effect on survival | lowest concentration that induced cell death ([2]; bortezomib alone): 5 nM | cell survival ([2]; concentrations above 5 nM bortezomib, within 24 hours, DMEM:F12 with 5% FBS): all cells died | cell survival ([2]; from 5 nM to 1 nM bortezomib): cell survived proportional with decreasing concentration | abundance and content of CA125 (mean fluorescence intensity, sum of labeled pixels) [4]: increase | abundance and content of MUC1 (mean fluorescence intensity, sum of labeled pixels) [5]: increase

Nc1ncn([C@H]2C[C@H](O)[C@@H](CO)O2)c(=O)n1 [decitabine, 5-aza-2′-deoxycytidine]
expression of silenced germ line and tumor-specific antigens [6]: increased and becomes more uniform | hypermethylation [6]: reversed

CC[C@H](C)[C@H](NC(=O)[C@H]([C@@H](C)CC)N(C)C(C)=O)C(=O)N[C@H](C(=O)N[C@@H](CC(C)C)C(=O)[C@@]1(C)CO1)[C@@H](C)O [epoxomicin]
content of protein (including normal, mutated and misfolded proteins) in the cancer cells [1]: increased

CC(=O)N[C@@H](CSC(=O)[C@]1([C@@H](O)C(C)C)NC(=O)[C@H](C)[C@@H]1O)C(=O)O [lactacystin]
content of protein (including normal, mutated and misfolded proteins) in the cancer cells [1]: increased

CCCC(CCC)C(=O)O [valproic acid]
level of histone acetylation, mRNA transcription, and protein expression, including expression of TAA [7]: increase

methyl-β-cyclodextrin [beta-methyl-cyclodextrin]
cholesterol and Wnt ligands of the plasma membrane of the cancer cells [8]: depleted

Source: patent US20250236841A1, “METHODS TO ENHANCE TUMOR IMMUNOGENICITY AND COMPOSITIONS FOR AUTOLOGOUS CANCER IMMUNOTHERAPEUTIC PRODUCTS USING MODIFIED TUMOR CELLS AND MODIFIED DENDRITIC CELLS” (AIVITA BIOMEDICAL, INC., priority 2017, published 2025)
